Measurements as given in ChEMBL document CHEMBL1212769, “Multiple-dose safety, tolerability, and pharmacokinetics of oral nemonoxacin (TG-873870) in healthy volunteers” (Antimicrob Agents Chemother, 2010).

Experiments:
[1] = AUC (0 to last) in human at 500 mg/kg, po measured on day 16; format: ADME, organism-based; design: time 0 - last, dose 500 mg/kg, route oral; conditions: plasma
Homo sapiens [2] = test: Toxicity in human assessed as occurrence of somnolence at 250 […], po administered as single dose; format: organism-based; design: route oral; conditions: in vivo
[3] = Renal clearance in human at 500 […], po measured on day 10; format: ADME, organism-based, Kidney; design: route oral; conditions: in vivo, read-out: CL_renal (converted)
[4] = AUC (0 to 24 hrs) in human at 750 mg/kg, po measured on day 10; format: ADME, organism-based; design: time < 24 hr, dose 750 mg/kg, route oral; conditions: plasma
[5] = AUC (0 to 24 hrs) in human at 250 mg/kg, po measured on day 10; format: ADME, organism-based; design: time < 24 hr, dose 250 mg/kg, route oral; conditions: plasma
[6] = Cmax in human at 500 […], po measured on day 10; format: ADME, organism-based; design: dose 500 mg/kg, route oral; conditions: in vivo
[7] = Oral clearance in human at 75 mg/kg measured on day 1; format: ADME, organism-based; design: dose 75 mg/kg; conditions: in vivo
[8] = Tmax in human at 75 […], po measured on day 10; format: ADME, organism-based; design: dose 75 mg/kg, route oral; conditions: in vivo
[9] = Terminal half life in human at 250 […], po measured on day 10; format: ADME, organism-based; design: route oral; conditions: in vivo, read-out: beta t1/2 (converted)
[10] = Clearance in human assessed as compound recovered in urine at 250 mg/kg, po measured on day 1 up to 24 hrs post dose; format: ADME, organism-based; design: dose 250 mg/kg, route oral; conditions: read-out: amount in urine
Homo sapiens [11] = test: Toxicity in human assessed as occurrence of rashes at 1000 […], po administered as single dose; format: organism-based; design: route oral; conditions: in vivo
Streptococcus pneumoniae = test: Ratio of fAUC (0 to 24 hrs) to MIC90 for Streptococcus pneumoniae; format: functional
Homo sapiens [12] = test: Toxicity in human assessed as incidence of headache at 1000 […], po administered as single dose; format: organism-based; design: route oral; conditions: in vivo
[13] = Cmax in human at 75 […], po measured on day 1; format: ADME, organism-based; design: dose 75 mg/kg, route oral; conditions: in vivo
[14] = AUC (0 to last) in human at 75 mg/kg, po measured on day 10; format: ADME, organism-based; design: time 0 - last, dose 75 mg/kg, route oral; conditions: plasma
[15] = AUC (0 to last) in human at 750 mg/kg, po measured on day 10; format: ADME, organism-based; design: time 0 - last, dose 750 mg/kg, route oral; conditions: plasma
[16] = Renal clearance in human at 500 […], po measured on day 16; format: ADME, organism-based, Kidney; design: route oral; conditions: in vivo, read-out: CL_renal (converted)
[17] = Cmax in human at 500 […], po measured on day 1; format: ADME, organism-based; design: dose 500 mg/kg, route oral; conditions: in vivo
[18] = AUC (0 to 24 hrs) in human at 250 mg/kg, po measured on day 1; format: ADME, organism-based; design: time < 24 hr, dose 250 mg/kg, route oral; conditions: plasma
[19] = Tmax in human at 500 […], po measured on day 1; format: ADME, organism-based; design: route oral; conditions: in vivo
[20] = Oral clearance in human at 500 mg/kg measured on day 10; format: ADME, organism-based; design: dose 500 mg/kg; conditions: in vivo
Homo sapiens [21] = test: Toxicity in human assessed as occurrence of diarrhea at 750 […], po administered as single dose; format: organism-based; design: route oral; conditions: in vivo
Homo sapiens [22] = test: Toxicity in human assessed as occurrence of dermatitis at 250 […], po administered as single dose; format: organism-based; design: route oral; conditions: in vivo
[23] = AUC (0 to last) in human at 1000 […], po measured on day 1; format: ADME, organism-based; design: time 0 - last, dose 1000 mg/kg, route oral; conditions: plasma
Homo sapiens [24] = test: Toxicity in human assessed as occurrence of abdominal pain at 750 […], po administered as single dose; format: organism-based, Abdomen; design: route oral; conditions: in vivo
[25] = Clearance in human assessed as compound recovered in urine at 750 mg/kg, po measured on day 1 up to 24 hrs post dose; format: ADME, organism-based; design: dose 750 mg/kg, route oral; conditions: read-out: amount in urine
Homo sapiens [26] = test: Toxicity in human assessed as occurrence of pollakiuria at 500 […], po administered as single dose; format: organism-based; design: route oral; conditions: in vivo
Homo sapiens [27] = test: Toxicity in human assessed as occurrence of pollakiuria at 75 […], po administered as single dose; format: organism-based; design: route oral; conditions: in vivo
Homo sapiens [28] = test: Toxicity in human assessed as occurrence of diarrhea at 250 […], po administered as single dose; format: organism-based; design: route oral; conditions: in vivo
Homo sapiens [29] = test: Toxicity in human assessed as occurrence of rashes at 250 […], po administered as single dose; format: organism-based; design: route oral; conditions: in vivo
[30] = Renal clearance in human at 75 […], po measured on day 1; format: ADME, organism-based, Kidney; design: route oral; conditions: in vivo, read-out: CL_renal (converted)
[31] = Tmax in human at 1000 […], po measured on day 1; format: ADME, organism-based; design: route oral; conditions: in vivo
[32] = AUC (0 to 24 hrs) in human at 500 mg/kg, po measured on day 1; format: ADME, organism-based; design: time < 24 hr, dose 500 mg/kg, route oral; conditions: plasma
[33] = Cmax in human at 250 […], po measured on day 1; format: ADME, organism-based; design: dose 250 mg/kg, route oral; conditions: in vivo
[34] = Oral clearance in human at 750 […] measured on day 10; format: ADME, organism-based; conditions: in vivo
[35] = Tmax in human at 750 […], po measured on day 10; format: ADME, organism-based; design: dose 750 mg/kg, route oral; conditions: in vivo
[36] = Tmax in human at 750 […], po measured on day 1; format: ADME, organism-based; design: route oral; conditions: in vivo
[37] = Clearance in human assessed as compound recovered in urine at 1000 […], po measured on day 1 up to 24 hrs post dose; format: ADME, organism-based; design: dose 1000 mg/kg, route oral; conditions: read-out: amount in urine
[38] = Clearance in human assessed as compound recovered in urine at 500 mg/kg, po measured on day 10 up to 24 hrs post dose; format: ADME, organism-based; design: dose 500 mg/kg, route oral; conditions: read-out: amount in urine
[39] = AUC (0 to last) in human at 750 mg/kg, po measured on day 1; format: ADME, organism-based; design: dose 750 mg/kg, route oral, time 0 - last; conditions: plasma
[40] = Clearance in human assessed as compound recovered in urine at 500 mg/kg, po measured on day 16 up to 24 hrs post dose; format: ADME, organism-based; design: dose 500 mg/kg, route oral; conditions: read-out: amount in urine
[41] = Renal clearance in human at 250 […], po measured on day 1; format: ADME, organism-based, Kidney; design: route oral; conditions: in vivo, read-out: CL_renal (converted)
Homo sapiens [42] = test: Toxicity in human assessed as occurrence of somnolence at 500 […], po administered as single dose; format: organism-based; design: route oral; conditions: in vivo
[43] = AUC (0 to last) in human at 250 mg/kg, po measured on day 1; format: ADME, organism-based; design: time 0 - last, dose 250 mg/kg, route oral; conditions: plasma
Homo sapiens [44] = test: Toxicity in human assessed as occurrence of abdominal pain at 250 […], po administered as single dose; format: organism-based, Abdomen; design: route oral; conditions: in vivo
[45] = Renal clearance in human at […], po measured on day 10; format: ADME, organism-based, Kidney; conditions: in vivo, read-out: CL_renal (converted)
[46] = Cmax in human at 750 […], po measured on day 10; format: ADME, organism-based; design: dose 750 mg/kg, route oral; conditions: in vivo
[47] = Oral clearance in human at 750 […] measured on day 1; format: ADME, organism-based; conditions: in vivo
Homo sapiens [48] = test: Toxicity in human assessed as occurrence of pruritus at 75 […], po administered as single dose; format: organism-based; design: route oral; conditions: in vivo
Homo sapiens [49] = test: Toxicity in human assessed as occurrence of diarrhea at […], po administered as single dose; format: organism-based; design: route oral; dose or concentration left out as unconfirmed; conditions: in vivo
Homo sapiens [50] = test: Toxicity in human assessed as occurrence of dermatitis at 500 […], po administered as single dose; format: organism-based; design: route oral; conditions: in vivo

**Q.** Which AUC(0-t) [1] does the source give for `COc1c(N2C[C@@H](C)C[C@H](N)C2)ccc2c(=O)c(C(=O)O)cn(C3CC3)c12` [NEMONOXACIN] here?
**A.** 26000 ng·h/mL

**Q.** What about the Activity (Homo sapiens [2]) of the same compound?
**A.** 0%

**Q.** What about the CL renal [3] of the same compound?
**A.** 131 mL/min

**Q.** And the AUC at 24 h [4]?
**A.** 58400 ng·h/mL

**Q.** And the AUC at 24 h [5]?
**A.** 16100 ng·h/mL

**Q.** What about the Cmax [6] of the same compound?
**A.** 5560 ng/mL

**Q.** And the CL/F [7]?
**A.** 303 mL/min

**Q.** And the Tmax [8]?
**A.** 55.2 min

**Q.** And the half-life [9]?
**A.** 1050 min

**Q.** What about the dose excreted at 24 h [10] of the same compound?
**A.** 36.8%

**Q.** What about the Activity (Homo sapiens [11]) of the same compound?
**A.** 0%

**Q.** What about the Ratio (Streptococcus pneumoniae) of the same compound?
**A.** > 100

**Q.** And the Activity (Homo sapiens [12])?
**A.** 0%

**Q.** And the Cmax [13]?
**A.** 502 ng/mL

**Q.** What about the AUC(0-t) [14] of the same compound?
**A.** 5450 ng·h/mL

**Q.** And the AUC(0-t) [15]?
**A.** 69300 ng·h/mL

**Q.** What about the CL renal [16] of the same compound?
**A.** 113 mL/min

**Q.** What about the Cmax [17] of the same compound?
**A.** 5120 ng/mL

**Q.** And the AUC(0-t) at 24 h [18]?
**A.** 13700 ng·h/mL

**Q.** And the Tmax [19]?
**A.** 1 h

**Q.** What about the CL/F [20] of the same compound?
**A.** 184 mL/min

**Q.** And the Activity (Homo sapiens [21])?
**A.** 0%

**Q.** What about the Activity (Homo sapiens [22]) of the same compound?
**A.** 0%

**Q.** What about the AUC(0-t) [23] of the same compound?
**A.** 59600 ng·h/mL

**Q.** What about the Activity (Homo sapiens [24]) of the same compound?
**A.** 0%

**Q.** And the dose excreted at 24 h [25]?
**A.** 47.1%

**Q.** And the Activity (Homo sapiens [26])?
**A.** 0%

**Q.** And the Activity (Homo sapiens [27])?
**A.** 0%

**Q.** And the Activity (Homo sapiens [28])?
**A.** 0%

**Q.** And the Activity (Homo sapiens [29])?
**A.** 0%

**Q.** And the CL renal [30]?
**A.** 198 mL/min

**Q.** What about the Tmax [31] of the same compound?
**A.** 2 h

**Q.** And the AUC(0-t) at 24 h [32]?
**A.** 31600 ng·h/mL

**Q.** And the Cmax [33]?
**A.** 2000 ng/mL

**Q.** And the CL/F [34]?
**A.** 189 mL/min

**Q.** What about the Tmax [35] of the same compound?
**A.** 1.51 h

**Q.** What about the Tmax [36] of the same compound?
**A.** 1.5 h

**Q.** And the dose excreted at 24 h [37]?
**A.** 47.9%

**Q.** What about the dose excreted at 24 h [38] of the same compound?
**A.** 57.8%

**Q.** And the AUC(0-t) [39]?
**A.** 46000 ng·h/mL

**Q.** And the dose excreted at 24 h [40]?
**A.** 30.5%

**Q.** And the CL renal [41]?
**A.** 115 mL/min

**Q.** And the Activity (Homo sapiens [42])?
**A.** 0%

**Q.** And the AUC(0-t) [43]?
**A.** 13700 ng·h/mL

**Q.** And the Activity (Homo sapiens [44])?
**A.** 0%

**Q.** What about the CL renal [45] of the same compound?
**A.** 93.8 mL/min

**Q.** What about the Cmax [46] of the same compound?
**A.** 6820 ng/mL

**Q.** What about the CL/F [47] of the same compound?
**A.** 252 mL/min

**Q.** What about the Activity (Homo sapiens [48]) of the same compound?
**A.** 0%

**Q.** And the Activity (Homo sapiens [49])?
**A.** 0%

**Q.** What about the Activity (Homo sapiens [50]) of the same compound?
**A.** 0%
